Measurements reported in patent publication US11053204B2, “Pyrimidinyloxy benzene derivatives as herbicides” (FMC Corporation, priority 2015, dated 2021).

How the values were obtained:
Format in all cases: in vivo
[1] = tested on: sedge, umbrella (small-flower umbrella sedge, Cyperus difformis); test: Test B flooded paddy test, plant response rating; conditions: 250 g ai/ha, Flood, scale of 0 to 100 where 0 is no effect and 100 is complete control, 13 to 15 days; for pest or weed control at 250 g/ha: Cyperus difformis, 312 h
Summary of the method: (§1)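 Under a constant 3 cm flood, test compounds went directly into the paddy water. Following 13 to 15 days of greenhouse growth, treated species and controls were compared by eye.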

rice (Oryza sativa) = test: Test B flooded paddy test, plant response rating; conditions: 250 g ai/ha, Flood, scale of 0 to 100 where 0 is no effect and 100 is complete control, 13 to 15 days; for plant injury at 250 g/ha: Oryza sativa, 312 h
Summary of the method: as §1

[2] = tested on: barnyardgrass (Echinochloa crus-galli); test: Test B flooded paddy test, plant response rating; conditions: 250 g ai/ha, Flood, scale of 0 to 100 where 0 is no effect and 100 is complete control, 13 to 15 days; for pest or weed control at 250 g/ha: Echinochloa crus-galli, 312 h
Summary of the method: as §1

[3] = tested on: ducksalad (Heteranthera limosa); test: Test B flooded paddy test, plant response rating; conditions: 250 g ai/ha, Flood, scale of 0 to 100 where 0 is no effect and 100 is complete control, 13 to 15 days; for pest or weed control at 250 g/ha: Heteranthera limosa, 312 h
Summary of the method: as §1

[4] = tested on: pigweed (Amaranthus retroflexus); test: Test A preemergence, visual injury rating; conditions: for pest or weed control at 125 g/ha / pest or weed control at 500 g/ha: Amaranthus retroflexus, pre-emergence, 240 h, read-out: Pigweed plant response rating
Summary of the method: (§2)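 Visual 0–100 rating (100 = complete control) taken about 10 d post-treatment relative to untreated checks. Preemergence: directed soil spray on sown loam/sand pots. Postemergence: seedlings 2–10 cm, 1–2 leaf. Non-phytotoxic solvent formulation with surfactant.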

kochia (Kochia scoparia) = test: Test A preemergence, visual injury rating; conditions: for pest or weed control at 125 g/ha / pest or weed control at 500 g/ha: Bassia scoparia, pre-emergence, 240 h, read-out: Kochia plant response rating
Summary of the method: as §2

[5] = tested on: giant foxtail (Setaria faberii); test: Test A preemergence, visual injury rating; conditions: for pest or weed control at 125 g/ha / pest or weed control at 500 g/ha: Setaria faberi, pre-emergence, 240 h, read-out: Foxtail, Giant plant response rating
Summary of the method: as §2

[6] = tested on: ragweed (common ragweed, Ambrosia elatior); test: Test A preemergence, visual injury rating; conditions: for pest or weed control at 125 g/ha / pest or weed control at 500 g/ha: Ambrosia artemisiifolia, pre-emergence, 240 h, read-out: Ragweed plant response rating
Summary of the method: as §2

[7] = tested on: barnyardgrass (Echinochloa crus-galli); test: Test A preemergence, visual injury rating; conditions: for pest or weed control at 125 g/ha / pest or weed control at 500 g/ha: Echinochloa crus-galli, pre-emergence, 240 h, read-out: Barnyardgrass plant response rating
Summary of the method: as §2

[8] = tested on: Italian ryegrass (Lolium multiflorum); test: Test A preemergence, visual injury rating; conditions: for pest or weed control at 125 g/ha / pest or weed control at 500 g/ha: Lolium multiflorum, pre-emergence, 240 h, read-out: Ryegrass, Italian plant response rating
Summary of the method: as §2

[9] = 125 g ai/ha, 0 to 100 scale (0 no effect, 100 complete control)
[10] = 500 g ai/ha, 0 to 100 scale (0 no effect, 100 complete control)
[11] = 31 g ai/ha, 0 to 100 scale, 0 no effect, 100 complete control

## N#CCCOC(=O)c1c(Br)cccc1Oc1ncc(Cl)cn1 [Compound 7]
[1]
  Plant response rating, Sedge, Umbrella: 0
Rice (Oryza sativa)
  Plant response rating, Rice: 0
[2]
  Plant response rating, Barnyardgrass: 0
[3]
  Plant response rating, Ducksalad: 0
[4]; [9]
  Pigweed plant response rating: 100
[4]; [10]
  Pigweed plant response rating: 100
Kochia (Kochia scoparia); [9]
  Kochia plant response rating: 50
Kochia (Kochia scoparia); [10]
  Kochia plant response rating: 100
[5]; [9]
  Foxtail, Giant plant response rating: 90
[5]; [10]
  Foxtail, Giant plant response rating: 100
[6]; [10]
  Ragweed plant response rating: 50
[7]; [9]
  Barnyardgrass plant response rating: 50
[7]; [10]
  Barnyardgrass plant response rating: 100
[8]; [9]
  Ryegrass, Italian plant response rating: 0
[8]; [10]
  Ryegrass, Italian plant response rating: 30

## O=C(OCC(F)(F)C(F)(F)F)c1c(Br)cccc1Oc1ncc(Cl)cn1 [Compound 23, 2,2,3,3,3-pentafluoropropyl 2-bromo-6-[(5-chloro-2-pyrimidinyl)oxy]benzoate]
[1]
  pest or weed control at 250 g/ha: 95%
Rice (Oryza sativa)
  plant injury at 250 g/ha: 15%
[2]
  pest or weed control at 250 g/ha: 0%
[3]
  pest or weed control at 250 g/ha: 30%
[4]; [9]
  pest or weed control at 125 g/ha: 100%
[4]; [10]
  pest or weed control at 500 g/ha: 100%
Kochia (Kochia scoparia); [9]
  pest or weed control at 125 g/ha: 0%
Kochia (Kochia scoparia); [10]
  pest or weed control at 500 g/ha: 50%
[5]; [9]
  pest or weed control at 125 g/ha: 70%
[5]; [10]
  pest or weed control at 500 g/ha: 100%
[6]; [9]
  pest or weed control at 125 g/ha: 0%
[6]; [10]
  pest or weed control at 500 g/ha: 10%
[7]; [9]
  pest or weed control at 125 g/ha: 20%
[7]; [10]
  pest or weed control at 500 g/ha: 70%
[8]; [9]
  pest or weed control at 125 g/ha: 0%
[8]; [10]
  pest or weed control at 500 g/ha: 40%

## O=C(CCC(F)(F)C(F)(F)F)c1c(Br)cccc1Oc1ncc(Cl)cn1 [Compound 110]
[1]
  Plant response rating, Sedge, Umbrella: 90
Rice (Oryza sativa)
  Plant response rating, Rice: 25
[2]
  Plant response rating, Barnyardgrass: 25
[3]
  Plant response rating, Ducksalad: 75
[4]; [11]
  Plant response rating, Pigweed: 40
[4]; [9]
  Plant response rating, Pigweed: 100
Kochia (Kochia scoparia); [11]
  Plant response rating, Kochia: 10
Kochia (Kochia scoparia); [9]
  Plant response rating, Kochia: 100
[5]; [11]
  Plant response rating, Foxtail, Giant: 80
[5]; [9]
  Plant response rating, Foxtail, Giant: 100
[6]; [11]
  Plant response rating, Ragweed: 0
[6]; [9]
  Plant response rating, Ragweed: 0
[7]; [11]
  Plant response rating, Barnyardgrass: 40
[7]; [9]
  Barnyardgrass plant response rating: 100
[8]; [11]
  Plant response rating, Ryegrass, Italian: 0
[8]; [9]
  Plant response rating, Ryegrass, Italian: 70

## FC(F)(F)CCCCc1c(Cl)cccc1Oc1ncc(Cl)cn1 [Compound 137]
[1]
  Plant response rating, Sedge, Umbrella: 95
Rice (Oryza sativa)
  Plant response rating, Rice: 50
[2]
  Plant response rating, Barnyardgrass: 75
[3]
  Plant response rating, Ducksalad: 95
[4]; [11]
  Plant response rating, Pigweed: 10
[4]; [9]
  Plant response rating, Pigweed: 100
Kochia (Kochia scoparia); [11]
  Plant response rating, Kochia: 0
Kochia (Kochia scoparia); [9]
  Plant response rating, Kochia: 70
[5]; [11]
  Plant response rating, Foxtail, Giant: 70
[5]; [9]
  Plant response rating, Foxtail, Giant: 100
[6]; [11]
  Plant response rating, Ragweed: 0
[6]; [9]
  Plant response rating, Ragweed: 0
[7]; [11]
  Plant response rating, Barnyardgrass: 0
[7]; [9]
  Plant response rating, Barnyardgrass: 90
[8]; [11]
  Plant response rating, Ryegrass, Italian: 0
[8]; [9]
  Plant response rating, Ryegrass, Italian: 20

## O=C(OCC(F)(F)F)c1c(Br)cccc1Oc1ncc(Cl)cn1 [Compound 35]
[1]
  Plant response rating, Sedge, Umbrella: 60
Rice (Oryza sativa)
  Plant response rating, Rice: 0
[2]
  Plant response rating, Barnyardgrass: 0
[3]
  Plant response rating, Ducksalad: 50
[4]; [9]
  Pigweed plant response rating: 100
[4]; [10]
  Pigweed plant response rating: 100
Kochia (Kochia scoparia); [9]
  Kochia plant response rating: 30
Kochia (Kochia scoparia); [10]
  Kochia plant response rating: 80
[5]; [9]
  Foxtail, Giant plant response rating: 100
[5]; [10]
  Foxtail, Giant plant response rating: 100
[6]; [9]
  Ragweed plant response rating: 0
[6]; [10]
  Ragweed plant response rating: 0
[7]; [9]
  Barnyardgrass plant response rating: 70
[7]; [10]
  Barnyardgrass plant response rating: 90
[8]; [9]
  Ryegrass, Italian plant response rating: 0
[8]; [10]
  Ryegrass, Italian plant response rating: 30

## C=CCOC(=O)c1c(Br)cccc1Oc1ncc(Cl)cn1 [Compound 22, 2-propen-1-yl 2-bromo-6-[(5-chloro-2-pyrimidinyl)oxy]benzoate]
[1]
  pest or weed control at 250 g/ha: 50%
Rice (Oryza sativa)
  plant injury at 250 g/ha: 0%
[2]
  pest or weed control at 250 g/ha: 0%
[3]
  pest or weed control at 250 g/ha: 40%
[4]; [9]
  pest or weed control at 125 g/ha: 100%
[4]; [10]
  pest or weed control at 500 g/ha: 100%
Kochia (Kochia scoparia); [9]
  pest or weed control at 125 g/ha: 30%
Kochia (Kochia scoparia); [10]
  pest or weed control at 500 g/ha: 100%
[5]; [9]
  pest or weed control at 125 g/ha: 100%
[5]; [10]
  pest or weed control at 500 g/ha: 100%
[6]; [9]
  pest or weed control at 125 g/ha: 0%
[6]; [10]
  pest or weed control at 500 g/ha: 0%
[7]; [9]
  pest or weed control at 125 g/ha: 40%
[7]; [10]
  pest or weed control at 500 g/ha: 100%
[8]; [9]
  pest or weed control at 125 g/ha: 30%
[8]; [10]
  pest or weed control at 500 g/ha: 90%
